Test results: patent publication US9145411B2, “Substituted amino-pyrimidine derivatives” (Asana Biosciences, LLC, priority 2012, dated 2015)

Columns and labels:
PI3Kα (wild-type) = target: T1, PI3Kα (wild-type) (Homo sapiens, UniProt P42336); experiment: PI3 Kinase TR-FRET assay, PI3Kα (wild-type); type: biochemical; details: wild-type P110/P85α, 10 μM ATP
T1 construct: made in house; host or cells: SF9 insect cells
Experimental: The ability of compounds of the invention to inhibit PI3K activity was determined in a homogeneous TR-FRET assay using a PI3K assay kit (Millipore, USA; cat #33-016) according to manufacturer's instructions. PI3-Kinases (isoforms α, β, γ and δ) catalyze the phosphorylation of phosphatidylinositol, PIP2 to PIP3 in the presence of ATP and Mg^2+. The PIP3 product is detected by displacement of biotin-PIP3 from an energy transfer complex consisting of Europium labeled anti-GST monoclonal antibody, a GST-tagged PH domain, biotinylated PIP3 and Streptavidin-APC. Excitation of Europium in the complex results in an energy transfer to the APC and a fluorescence emission at 665 nm. The PIP3 product displaces biotin-PIP3 from the complex resulting in a loss of energy transfer and thus a decrease in signal.
To test for the ability of compounds to inhibit the activity of PI3Kα (wild-type), exemplary compounds of formula (I) were dissolved in DMSO and directly distributed into 384-well plates at a volume of 0.5 μL. 14.5 μL of P110/P85α/PIP2 mixture in buffer (obtained from the Millipore kit) containing MgCl2 (40 mM) and DTT (5 mM) was added to compound wells and incubated for 60 minutes at room temperature. P110/P85α was expressed in SF9 insect cells and purified nickel column extraction. Five ng of wild-type P110/P85α was used in the assay. The kinase reaction was started by the addition of ATP. The assay concentrations of both PIP2 and ATP were 10 μM. The reaction mixture was incubated for 30 minutes at room temperature and was terminated by the addition of stop mix and detection mix. Fluorescence was measured at 615 and 665 nm upon excitation at 340 nm in a Victor™ V5 fluorometer (Perkin Elmer, USA). The fluorescence emission ratio at 665 to 615 nm, proportional to the kinase activity, was plotted against the compound concentration to generate dose-response curves and IC50 values were determined using GraphPad Prism® 5 software.

mTOR kinase = target: T2, mTOR kinase (Homo sapiens, UniProt P42345); experiment: mTOR kinase TR-FRET assay; type: biochemical; details: 20 μM ATP
T2 construct: purchased Millipore, USA
Experimental: Compound inhibition for mTOR kinase was determined in a homogeneous TR-FRET assay using the Lance® ULight-p70 S6K (Thr 389) peptide (obtained from Perkin-Elmer). The ULight™-labeled synthetic peptide contains the amino acid residues surrounding Thr389 of human p70 S6K. The ULight-p70 S6K peptide is phosphorylated at Thr389 by mTOR. Phosphorylation motif: LGFTYVAP as substrate.
The compound dilution was carried out in 100% DMSO followed by a buffer dilution. The reaction buffer was HEPES (50 mM pH 7.5), EGTA (1 mM), MnCl2 (3 mM). Test compounds at various concentrations were pre-incubated with mTOR (Millipore, USA; 5 ng) for 60 min, and then the Lance® ULight-p70 S6K (Thr 389) peptide (50 nM) was added along with ATP (20 μM). After incubating the reaction mixture for 60 minutes at room temperature, the kinase reaction was terminated by the addition of EDTA (10 mM) followed by the addition of detection mix, i.e., 1 nM Eu-labeled anti-phospho-substrate antibody (Perkin Elmer, USA). The fluorescence emission at […] was measured upon excitation at 340 nm. IC50 values were subsequently determined using a sigmoidal dose-response curve (variable slope) in GraphPad Prism® 5 software.
Compounds of formula (I) caused inhibition of mTOR kinase activity as determined by this assay.

T1 sequence (P42336 whole entry, species assumed): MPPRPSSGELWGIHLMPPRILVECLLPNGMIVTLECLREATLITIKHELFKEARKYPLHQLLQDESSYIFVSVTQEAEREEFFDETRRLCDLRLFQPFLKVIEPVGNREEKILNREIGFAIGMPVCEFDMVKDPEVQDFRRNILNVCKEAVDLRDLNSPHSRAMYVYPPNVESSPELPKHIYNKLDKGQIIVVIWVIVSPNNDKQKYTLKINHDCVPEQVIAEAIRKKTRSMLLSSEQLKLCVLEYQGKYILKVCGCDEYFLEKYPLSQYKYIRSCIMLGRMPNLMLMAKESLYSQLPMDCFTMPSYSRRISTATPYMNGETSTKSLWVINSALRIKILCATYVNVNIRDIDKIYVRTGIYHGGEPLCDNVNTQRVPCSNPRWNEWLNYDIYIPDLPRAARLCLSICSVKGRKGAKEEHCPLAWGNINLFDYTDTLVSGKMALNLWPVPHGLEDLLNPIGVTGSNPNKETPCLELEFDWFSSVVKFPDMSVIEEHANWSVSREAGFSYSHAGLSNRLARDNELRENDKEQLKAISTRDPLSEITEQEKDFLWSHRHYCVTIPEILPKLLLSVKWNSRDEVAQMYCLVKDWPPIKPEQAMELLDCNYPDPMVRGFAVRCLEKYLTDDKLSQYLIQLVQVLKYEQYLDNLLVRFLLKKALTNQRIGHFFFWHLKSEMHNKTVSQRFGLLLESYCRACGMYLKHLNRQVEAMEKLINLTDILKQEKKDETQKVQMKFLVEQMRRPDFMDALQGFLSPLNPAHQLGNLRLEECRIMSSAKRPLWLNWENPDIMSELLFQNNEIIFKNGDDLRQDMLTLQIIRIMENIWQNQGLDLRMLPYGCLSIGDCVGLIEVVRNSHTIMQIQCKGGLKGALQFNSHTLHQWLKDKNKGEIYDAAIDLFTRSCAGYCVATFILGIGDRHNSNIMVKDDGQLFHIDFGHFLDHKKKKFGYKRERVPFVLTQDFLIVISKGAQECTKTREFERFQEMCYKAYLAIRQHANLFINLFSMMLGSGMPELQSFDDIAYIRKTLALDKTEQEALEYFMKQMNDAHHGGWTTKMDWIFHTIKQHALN
T1 sequence (P27986 whole entry partner, species assumed): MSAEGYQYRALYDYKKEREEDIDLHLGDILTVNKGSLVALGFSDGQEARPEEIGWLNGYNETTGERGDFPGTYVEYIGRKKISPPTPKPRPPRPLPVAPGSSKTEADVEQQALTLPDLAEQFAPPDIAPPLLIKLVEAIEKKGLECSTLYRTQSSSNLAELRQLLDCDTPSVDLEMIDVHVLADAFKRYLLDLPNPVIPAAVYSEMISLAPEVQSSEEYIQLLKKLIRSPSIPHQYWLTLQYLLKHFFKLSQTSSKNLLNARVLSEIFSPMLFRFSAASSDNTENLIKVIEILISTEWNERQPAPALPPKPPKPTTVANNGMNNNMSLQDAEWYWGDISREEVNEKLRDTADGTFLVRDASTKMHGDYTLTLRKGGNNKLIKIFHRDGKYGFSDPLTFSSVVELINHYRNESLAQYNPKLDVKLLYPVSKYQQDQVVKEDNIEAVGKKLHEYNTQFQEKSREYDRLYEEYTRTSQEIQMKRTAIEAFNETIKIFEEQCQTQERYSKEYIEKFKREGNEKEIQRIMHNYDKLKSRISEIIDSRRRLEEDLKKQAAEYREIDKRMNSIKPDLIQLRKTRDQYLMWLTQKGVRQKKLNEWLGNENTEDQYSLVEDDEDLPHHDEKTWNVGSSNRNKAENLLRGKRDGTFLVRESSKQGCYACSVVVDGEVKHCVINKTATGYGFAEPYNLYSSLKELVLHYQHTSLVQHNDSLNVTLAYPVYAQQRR
T2 sequence (P42345 1362-2549 limits assumed): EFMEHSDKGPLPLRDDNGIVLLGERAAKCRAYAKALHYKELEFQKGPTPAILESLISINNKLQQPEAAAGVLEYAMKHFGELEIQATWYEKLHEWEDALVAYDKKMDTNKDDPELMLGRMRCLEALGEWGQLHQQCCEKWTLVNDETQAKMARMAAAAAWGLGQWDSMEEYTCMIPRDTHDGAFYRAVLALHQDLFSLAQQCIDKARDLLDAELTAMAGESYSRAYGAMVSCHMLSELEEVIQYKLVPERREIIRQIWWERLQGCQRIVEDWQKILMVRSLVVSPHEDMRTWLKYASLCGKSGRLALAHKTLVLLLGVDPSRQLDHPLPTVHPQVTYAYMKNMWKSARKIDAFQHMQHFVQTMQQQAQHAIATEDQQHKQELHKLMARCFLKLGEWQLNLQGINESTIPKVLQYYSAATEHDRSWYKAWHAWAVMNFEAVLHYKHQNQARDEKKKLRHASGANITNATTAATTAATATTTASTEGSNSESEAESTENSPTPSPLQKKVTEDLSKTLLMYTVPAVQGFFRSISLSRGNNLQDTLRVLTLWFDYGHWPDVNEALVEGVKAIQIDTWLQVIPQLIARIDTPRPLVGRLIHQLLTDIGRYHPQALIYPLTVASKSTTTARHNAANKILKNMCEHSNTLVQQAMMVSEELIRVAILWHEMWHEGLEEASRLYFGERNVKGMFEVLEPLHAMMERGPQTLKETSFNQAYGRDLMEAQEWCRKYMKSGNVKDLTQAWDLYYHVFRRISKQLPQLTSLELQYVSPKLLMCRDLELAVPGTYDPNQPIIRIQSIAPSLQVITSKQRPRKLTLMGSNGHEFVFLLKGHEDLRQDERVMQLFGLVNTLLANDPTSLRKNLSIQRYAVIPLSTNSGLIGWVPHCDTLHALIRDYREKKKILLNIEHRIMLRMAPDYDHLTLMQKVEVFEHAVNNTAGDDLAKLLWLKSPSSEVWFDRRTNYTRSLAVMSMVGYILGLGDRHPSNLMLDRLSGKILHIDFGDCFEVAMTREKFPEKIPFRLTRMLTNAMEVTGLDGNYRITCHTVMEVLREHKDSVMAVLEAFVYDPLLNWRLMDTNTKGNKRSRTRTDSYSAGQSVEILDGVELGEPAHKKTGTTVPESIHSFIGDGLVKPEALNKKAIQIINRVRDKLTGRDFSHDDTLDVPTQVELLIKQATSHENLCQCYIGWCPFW

SMILES: CC(=O)N1CCN(Cc2ccc3c(N4CCOCC4)nc(-c4cnc(N)nc4)nc3c2)CC1 [Example 92, 1-(4-((2-(2-amino-pyrimidin-5-yl)-4-morpholinoquinazolin-7-yl)methyl)piperazin-1-yl)ethanone]
- IC50 (PI3Kα (wild-type)): 201 to 10000 nM
- IC50 (mTOR kinase): 201 to 10000 nM

SMILES: Nc1ncc(-c2nc(N3CCOCC3)c3ccc(-c4cccc(NC(=O)N5CCOCC5)c4)cc3n2)cn1 [Example 88, N-(3-(2-(2-amino-pyrimidin-5-yl)-4-morpholinoquinazolin-7-yl)phenyl)morpholine-4-carboxamide]
- IC50 (PI3Kα (wild-type)): 50 to 200 nM
- IC50 (mTOR kinase): 50 to 200 nM

SMILES: Nc1ncc(-c2nc(N3CCOCC3)c3ncc(-c4ccc(NC(=O)C5CC5)cc4F)cc3n2)cn1 [Example 32, N-(4-(2-(2-amino-pyrimidin-5-yl)-4-morpholinopyrido[3,2-d]pyrimidin-7-yl)-3-fluorophenyl)cyclo-propanecarboxamide]
- IC50 (PI3Kα (wild-type)): < 50 nM
- IC50 (mTOR kinase): 50 to 200 nM

SMILES: Nc1ncc(-c2nc(N3CCOCC3)c3ncc(-c4ccc(NC(=O)c5ccco5)cc4)cc3n2)cn1 [Example 79, N-(4-(2-(2-amino-pyrimidin-5-yl)-4-morpholinopyrido[3,2-d]pyrimidin-7-yl)-phenyl)furan-2-carboxamide]
- IC50 (PI3Kα (wild-type)): < 50 nM

SMILES: CC(C)(C#N)C(=O)N1CCN(c2cccc(-c3cnc4c(N5CCOCC5)nc(-c5cnc(N)nc5)nc4c3)c2)CC1 [Example 107, 3-(4-(3-(2-(2-amino-pyrimidin-5-yl)-4-morpholinopyrido[3,2-d]-pyrimidin-7-yl)-phenyl)piperazin-1-yl)-2,2-dimethyl-3-oxopropanenitrile]
- IC50 (PI3Kα (wild-type)): < 50 nM

SMILES: CC(=O)NC1CCN(Cc2ccc3c(N4CCOCC4)nc(-c4cnc(N)nc4)nc3c2)CC1 [Example 93, N-(1-((2-(2-amino-pyrimidin-5-yl)-4-morpholinoquinazolin-7-yl)methyl)piperidin-4-yl)-acetamide]
- IC50 (PI3Kα (wild-type)): 201 to 10000 nM
- IC50 (mTOR kinase): 201 to 10000 nM

SMILES: CC(O)C(=O)Nc1cccc(-c2ccc3c(N4CCOCC4)nc(-c4cnc(N)nc4)nc3c2)c1 (centres unmarked) [Example 43, N-(3-(2-(2-amino-pyrimidin-5-yl)-4-morpholinoquinazolin-7-yl)phenyl)-2-hydroxy-propanamide]
- IC50 (PI3Kα (wild-type)): 201 to 10000 nM
- IC50 (mTOR kinase): < 50 nM

SMILES: CN(C)CC(=O)Nc1cccc(-c2ccc3c(N4CCOCC4)nc(-c4cnc(N)nc4)nc3c2)c1 [Example 42, N-(3-(2-(2-amino-pyrimidin-5-yl)-4-morpholinoquinazolin-7-yl)phenyl)-2-(dimethylamino)-acetamide]
- IC50 (PI3Kα (wild-type)): 201 to 10000 nM
- IC50 (mTOR kinase): 50 to 200 nM

SMILES: CC(=O)N(C)c1cccc(-c2cnc3c(N4CCOCC4)nc(-c4cnc(N)nc4)nc3c2)c1 [Example 27, N-(3-(2-(2-amino-pyrimidin-5-yl)-4-morpholinopyrido[3,2-d]-pyrimidin-7-yl)phenyl)-N-methylacetamide]
- IC50 (PI3Kα (wild-type)): 50 to 200 nM
- IC50 (mTOR kinase): 50 to 200 nM

SMILES: CC(C)(O)C(=O)N1CCN(Cc2ccc3c(N4CCOCC4)nc(-c4cnc(N)nc4)nc3c2)CC1 [Example 91, 1-(4-((2-(2-amino-pyrimidin-5-yl)-4-morpholinoquinazolin-7-yl)methyl)piperazin-1-yl)-2-hydroxy-2-methyl-propan-1-one]
- IC50 (PI3Kα (wild-type)): 201 to 10000 nM
- IC50 (mTOR kinase): 201 to 10000 nM

SMILES: Cc1ccc(C(=O)Nc2ccc(F)c(-c3cnc4c(N5CCOCC5)nc(-c5cnc(N)nc5)nc4c3)c2)o1 [Example 72, N-(3-(2-(2-amino-pyrimidin-5-yl)-4-morpholinopyrido[3,2-d]pyrimidin-7-yl)-4-fluorophenyl)-5-methylfuran-2-carboxamide]
- IC50 (PI3Kα (wild-type)): < 50 nM

SMILES: Nc1ncc(-c2nc(N3CCOCC3)c3ncc(-c4ccc(NC(=O)C5CCC5)cc4)cc3n2)cn1 [Example 78, N-(4-(2-(2-amino-pyrimidin-5-yl)-4-morpholinopyrido[3,2-d]pyrimidin-7-yl)-phenyl)cyclobutane-carboxamide]
- IC50 (PI3Kα (wild-type)): < 50 nM

SMILES: C[C@H](O)C(=O)Nc1cccc(-c2ccc3c(N4CCOCC4)nc(-c4cnc(N)nc4)nc3c2)c1 [Example 44]
- IC50 (PI3Kα (wild-type)): 50 to 200 nM
- IC50 (mTOR kinase): 201 to 10000 nM

SMILES: CN(C)C(=O)c1cccc(-c2cnc3c(N4CCOCC4)nc(-c4cnc(N)nc4)nc3c2)c1 [Example 41, 3-(2-(2-aminopyrimidin-5-yl)-4-morpholinopyrido[3,2-d]pyrimidin-7-yl)-N,N-dimethylbenzamide]
- IC50 (PI3Kα (wild-type)): < 50 nM
- IC50 (mTOR kinase): 50 to 200 nM

SMILES: CC(=O)Nc1cncc(-c2cnc3c(N4CCOCC4)nc(-c4cnc(N)nc4)nc3c2)c1 [Example 30, N-(5-(2-(2-amino-pyrimidin-5-yl)-4-morpholinopyrido[3,2-d]pyrimidin-7-yl)pyridin-3-yl)acetamide]
- IC50 (PI3Kα (wild-type)): < 50 nM
- IC50 (mTOR kinase): 201 to 10000 nM

SMILES: CC(O)C(=O)N1CCN(Cc2cnc3c(N4CCOCC4)nc(-c4cnc(N)nc4)nc3c2)CC1 (centres unmarked) [Example 11, 1-(4-((2-(2-aminopyrimidin-5-yl)-4-morpholinopyrido[3,2-d]pyrimidin-7-yl)-methyl)piperazin-1-yl)-2-hydroxypropan-1-one]
- IC50 (PI3Kα (wild-type)): 201 to 10000 nM
- IC50 (mTOR kinase): 201 to 10000 nM

SMILES: Nc1ncc(-c2nc(N3CCOCC3)c3ncc(-c4cccc(NC(=O)c5ccc(F)cc5)c4)cc3n2)cn1 [Example 74, N-(3-(2-(2-amino-pyrimidin-5-yl)-4-morpholinopyrido[3,2-d]pyrimidin-7-yl)phenyl)-4-fluorobenzamide]
- IC50 (PI3Kα (wild-type)): < 50 nM

SMILES: Nc1ncc(-c2nc(N3CCOCC3)c3ncc(-c4cccc(NC(=O)c5csnn5)c4)cc3n2)cn1 [Example 69, N-(3-(2-(2-amino-pyrimidin-5-yl)-4-morpholinopyrido[3,2-d]pyrimidin-7-yl)phenyl)-1,2,3-thiadiazole-4-carboxamide]
- IC50 (PI3Kα (wild-type)): < 50 nM

SMILES: Nc1ncc(-c2nc(N3CCOCC3)c3ncc(-c4cccc(NC(=O)C5CCOCC5)c4)cc3n2)cn1 [Example 63, N-(3-(2-(2-amino-pyrimidin-5-yl)-4-morpholinopyrido[3,2-d]pyrimidin-7-yl)-phenyl)tetrahydro-2H-pyran-4-carboxamide]
- IC50 (PI3Kα (wild-type)): < 50 nM
- IC50 (mTOR kinase): < 50 nM

SMILES: Cc1cc(C(=O)Nc2cccc(-c3cnc4c(N5CCOCC5)nc(-c5cnc(N)nc5)nc4c3)c2)[nH]n1 [Example 75, N-(3-(2-(2-amino-pyrimidin-5-yl)-4-morpholinopyrido[3,2-d]pyrimidin-7-yl)phenyl)-3-methyl-1H-pyrazole-5-carboxamide]
- IC50 (PI3Kα (wild-type)): < 50 nM
- IC50 (mTOR kinase): < 50 nM

SMILES: CS(=O)(=O)c1cncc(-c2ccc3c(N4CCOCC4)nc(-c4cnc(N)nc4)nc3c2)c1 [Example 18, 5-(7-(5-(methyl-sulfonyl)pyridin-3-yl)-4-morpholinoquinazolin-2-yl)pyrimidin-2-amine]
- IC50 (PI3Kα (wild-type)): 201 to 10000 nM
- IC50 (mTOR kinase): 201 to 10000 nM

SMILES: Nc1ncc(-c2nc(N3CCOCC3)c3ncc(-c4ccc(NC(=O)C5CC5)cc4)cc3n2)cn1 [Example 62, N-(4-(2-(2-amino-pyrimidin-5-yl)-4-morpholinopyrido[3,2-d]pyrimidin-7-yl)-phenyl)cyclopropane-carboxamide]
- IC50 (PI3Kα (wild-type)): < 50 nM
- IC50 (mTOR kinase): 50 to 200 nM

SMILES: Cc1ccc(C(=O)Nc2ccc(-c3cnc4c(N5CCOCC5)nc(-c5cnc(N)nc5)nc4c3)cc2)o1 [Example 73, N-(4-(2-(2-amino-pyrimidin-5-yl)-4-morpholinopyrido[3,2-d]pyrimidin-7-yl)phenyl)-5-methylfuran-2-carboxamide]
- IC50 (PI3Kα (wild-type)): < 50 nM

SMILES: CS(=O)(=O)N1CCN(C(=O)c2cccc(-c3cnc4c(N5CCOCC5)nc(-c5cnc(N)nc5)nc4c3)c2)CC1 [Example 36, (3-(2-(2-aminopyrimidin-5-yl)-4-morpholino-pyrido[3,2-d]pyrimidin-7-yl)phenyl)(4-(methyl-sulfonyl)piperazin-1-yl)-methanone]
- IC50 (PI3Kα (wild-type)): < 50 nM

SMILES: Nc1ncc(-c2nc(N3CCOCC3)c3ccc(-c4ccsc4)cc3n2)cn1 [Example 17, 5-(4-morpholino-7-(thiophen-3-yl)-quinazolin-2-yl)-pyrimidin-2-amine]
- IC50 (mTOR kinase): 50 to 200 nM
